Measurements from ChEMBL document CHEMBL1201862, “PubChem BioAssay data set” (2004).
Active and inactive are the calls of the source. Rule as the data show it, for most assays here: actives have a measured EC50 and inactives only a lower limit.

Key:
[1] = molecular target: T1, Heat shock 70 kDa protein 1A (Homo sapiens, UniProt P0DMV8); experiment: small-molecule inhibition of Hsp70 – biochemical, TR-FRET (AID 786)
[2] = molecular target: T1, Heat shock 70 kDa protein 1A; experiment: small molecules displacing fluorescent ligand from Hsp70 – biochemical, fluorescence polarization, primary screen (AID 583)
[3] = Luminescence Cell-Based Dose Retest to Confirm Inhibitors of Cancer Stem Cells. [Related pubchem assays (depositor defined):AID2717, AID2721]; assay type: functional; conditions: Homo sapiens
[4] = molecular target: Serine/threonine-protein phosphatase PP1-alpha catalytic subunit (Homo sapiens, UniProt P62136); experiment: inhibition of protein phosphatase 1 activity – biochemical, fluorescence, dose response (AID 2403);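 also: phosphatase turnover of OMFP into fluorescent 3-O-methylfluorescein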
Sequence of Serine/threonine-protein phosphatase PP1-alpha catalytic subunit (P62136 whole entry): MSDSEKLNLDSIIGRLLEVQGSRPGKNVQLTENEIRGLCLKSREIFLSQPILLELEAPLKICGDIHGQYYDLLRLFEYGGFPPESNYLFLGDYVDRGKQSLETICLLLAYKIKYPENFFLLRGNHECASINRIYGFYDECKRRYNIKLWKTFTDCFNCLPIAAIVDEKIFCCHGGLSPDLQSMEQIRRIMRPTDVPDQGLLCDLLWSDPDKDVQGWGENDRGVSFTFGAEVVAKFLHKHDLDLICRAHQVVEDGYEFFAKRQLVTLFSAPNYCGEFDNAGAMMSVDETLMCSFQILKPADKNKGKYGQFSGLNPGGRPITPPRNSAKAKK

[5] = molecular target: Serine/threonine-protein phosphatase (Homo sapiens, UniProt Q9BPW0); experiment: Counterscreen for inhibitors of PP1: fluorescence-based biochemical high throughput dose response assay to identify inhibitors of Protein Phosphatase 5 (PP5). [Related pubchem assays: 2034 (Summary (PP5 inhibitors)), 1987 (PP5 inhibitors in singlate), 2235 (PP1 inhibitors in singlate)]
Sequence of Serine/threonine-protein phosphatase (Q9BPW0 whole entry): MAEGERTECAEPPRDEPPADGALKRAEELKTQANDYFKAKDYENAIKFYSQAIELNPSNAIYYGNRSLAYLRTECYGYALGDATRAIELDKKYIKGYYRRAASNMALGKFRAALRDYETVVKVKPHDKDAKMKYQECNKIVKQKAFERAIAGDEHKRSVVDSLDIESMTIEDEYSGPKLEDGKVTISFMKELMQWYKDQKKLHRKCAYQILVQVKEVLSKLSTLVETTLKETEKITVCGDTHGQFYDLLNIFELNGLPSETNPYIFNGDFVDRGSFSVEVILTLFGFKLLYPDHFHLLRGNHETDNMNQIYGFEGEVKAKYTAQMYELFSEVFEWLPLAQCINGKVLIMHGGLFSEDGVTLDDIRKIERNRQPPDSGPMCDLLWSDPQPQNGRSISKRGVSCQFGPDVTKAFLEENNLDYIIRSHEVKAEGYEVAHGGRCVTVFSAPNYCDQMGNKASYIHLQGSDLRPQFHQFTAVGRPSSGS

Bcl-2-like protein 10 = Bcl-2-like protein 10 (Homo sapiens, UniProt Q9HD36); experiment: Concentration-response of Bcl-B inhibitors by biochemical FP with TR3 (AID 1243); assay type: functional
Sequence of Bcl-2-like protein 10 (Q9HD36 whole entry): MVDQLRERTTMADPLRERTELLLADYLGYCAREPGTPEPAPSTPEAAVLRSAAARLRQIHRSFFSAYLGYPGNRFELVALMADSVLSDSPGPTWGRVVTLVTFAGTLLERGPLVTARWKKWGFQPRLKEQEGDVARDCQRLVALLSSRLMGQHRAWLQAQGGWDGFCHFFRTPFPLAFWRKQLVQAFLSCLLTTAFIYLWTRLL

[6] = luciferase reporter signal suppression in cells – H4 neuroglioma cells, luminescence, dose response (AID 1990); assay type: functional, cell-based
[7] = molecular target: T2, Neuropeptide Y receptor type 1 (Homo sapiens, UniProt P25929); assay type: functional;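 also: HEK293 cells with a CNG channel challenged with NPY then isoproterenol; potency as antagonist that reverses NPY suppression of cAMP signal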
T2 sequence (P25929 whole entry): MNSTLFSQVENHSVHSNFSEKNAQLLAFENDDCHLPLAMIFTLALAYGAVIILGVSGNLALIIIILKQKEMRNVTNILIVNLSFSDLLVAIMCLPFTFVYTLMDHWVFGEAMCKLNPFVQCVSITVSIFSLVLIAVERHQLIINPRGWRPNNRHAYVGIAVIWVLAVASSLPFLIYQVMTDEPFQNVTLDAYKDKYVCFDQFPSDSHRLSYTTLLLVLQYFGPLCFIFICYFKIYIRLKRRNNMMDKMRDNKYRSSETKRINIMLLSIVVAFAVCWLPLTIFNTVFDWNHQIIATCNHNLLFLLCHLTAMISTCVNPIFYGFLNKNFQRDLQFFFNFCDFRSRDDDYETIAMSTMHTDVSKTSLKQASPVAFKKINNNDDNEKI

[8] = Luminescence Cell-Based Dose Response HTS to Identify Inhibitors of 5'UTR Stem-Loop Driven Prion Protein mRNA Translation in H4 Neuroglioblastoma Cells. [Related pubchem assays: 1827 (Project Summary), 1813 (Primary HTS)]; assay type: functional
[9] = alpha-synuclein stem-loop luciferase translation blockers – H4 neuroglioma cells, luminescence, confirmation (AID 1988); assay type: functional, cell-based
[10] = Trypanosoma cruzi growth suppression in host cells – NIH3T3 host cells, beta-gal luminescence, confirmation (AID 2044); assay type: functional, cell-based;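 also: intracellular parasites grown in NIH/3T3 mouse fibroblasts as host cells; luminescent beta-galactosidase reporter signal from transgenic T. cruzi replicating inside host cells; inhibitors lower the luminescence signal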
[11] = molecular target: T3, Neuropeptide Y receptor type 2 (Homo sapiens, UniProt P49146); assay type: functional, cell-based;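 also: HEK293 cells expressing the receptor and a CNG channel; stimulus was NPY near EC95 followed by isoproterenol to raise cAMP; antagonist potency measured as restoring cAMP signal that NPY suppresses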
T3 sequence (P49146 whole entry): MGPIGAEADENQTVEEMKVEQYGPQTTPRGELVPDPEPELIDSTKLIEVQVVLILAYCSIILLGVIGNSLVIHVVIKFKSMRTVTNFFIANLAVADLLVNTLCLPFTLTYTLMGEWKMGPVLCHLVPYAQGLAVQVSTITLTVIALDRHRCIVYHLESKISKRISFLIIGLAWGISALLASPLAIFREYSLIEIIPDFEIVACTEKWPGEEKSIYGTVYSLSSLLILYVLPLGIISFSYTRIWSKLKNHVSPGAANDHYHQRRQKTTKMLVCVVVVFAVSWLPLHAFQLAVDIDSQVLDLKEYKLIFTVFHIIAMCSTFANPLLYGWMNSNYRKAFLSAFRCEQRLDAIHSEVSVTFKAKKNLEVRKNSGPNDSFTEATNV

[12] = NIH3T3 cell viability loss – ATP luminescence, mouse fibroblasts, counter-screen, dose response (AID 2010); assay type: functional, cell-based;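 also: cells exposed to compound for about 90 hours before reading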
[13] = system: Streptococcus sp. 'group A'; experiment: Streptococcus pyogenes SK(-)GAS viability under kanamycin – luminescence, BacTiterGlo, confirmation, counter-screen for streptokinase expression inhibitor project, dose response (AID 1900); assay type: functional, organism-based
Streptococcus [14] = experiment: Luminescence Microorganism-Based Dose Response Follow up to Identify Compounds Cytotoxic to Streptococcus. [Related pubchem assays: 1677 (Project Summary), 1915, 1914, 1902 (Retest at Dose), 1900 (Counter Screen), 1662 (Primary HTS)]; assay type: functional, organism-based
Streptokinase A = molecular target: T4, Streptokinase A (Streptococcus pyogenes serotype M1, UniProt P10520); experiment: viability-normalized secreted streptokinase activity reduction – plasminogen activation absorbance, OD405, dose response (AID 1914); assay type: functional, Streptococcus pyogenes M1 GAS;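 also: secreted streptokinase activity via plasminogen activation per viability signal from cell pellet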
T4 sequence (P10520 whole entry): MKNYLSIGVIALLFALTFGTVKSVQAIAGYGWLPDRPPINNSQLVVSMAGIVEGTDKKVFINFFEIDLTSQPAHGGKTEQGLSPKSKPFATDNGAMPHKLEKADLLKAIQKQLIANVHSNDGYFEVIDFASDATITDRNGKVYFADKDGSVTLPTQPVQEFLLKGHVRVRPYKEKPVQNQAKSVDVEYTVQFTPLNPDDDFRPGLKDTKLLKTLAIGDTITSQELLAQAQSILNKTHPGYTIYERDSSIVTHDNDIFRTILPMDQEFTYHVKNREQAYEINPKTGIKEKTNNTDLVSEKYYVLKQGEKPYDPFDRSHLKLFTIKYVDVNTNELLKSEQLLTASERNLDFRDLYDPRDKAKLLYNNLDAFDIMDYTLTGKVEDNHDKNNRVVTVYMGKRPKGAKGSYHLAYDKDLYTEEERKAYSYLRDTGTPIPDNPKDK

Streptococcus [15] = experiment: GAS UMAA2166 growth inhibition – luminescence, BacTiterGlo, counter-screen for streptokinase expression inhibitor project, dose response (AID 1915); assay type: functional, organism-based;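 also: potency for reduction of bacterial viability or growth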
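For AC50 in this document: cells exposed to compound for roughly 70 hours or longer before luminescence read.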

T1 sequence (P0DMV8 whole entry): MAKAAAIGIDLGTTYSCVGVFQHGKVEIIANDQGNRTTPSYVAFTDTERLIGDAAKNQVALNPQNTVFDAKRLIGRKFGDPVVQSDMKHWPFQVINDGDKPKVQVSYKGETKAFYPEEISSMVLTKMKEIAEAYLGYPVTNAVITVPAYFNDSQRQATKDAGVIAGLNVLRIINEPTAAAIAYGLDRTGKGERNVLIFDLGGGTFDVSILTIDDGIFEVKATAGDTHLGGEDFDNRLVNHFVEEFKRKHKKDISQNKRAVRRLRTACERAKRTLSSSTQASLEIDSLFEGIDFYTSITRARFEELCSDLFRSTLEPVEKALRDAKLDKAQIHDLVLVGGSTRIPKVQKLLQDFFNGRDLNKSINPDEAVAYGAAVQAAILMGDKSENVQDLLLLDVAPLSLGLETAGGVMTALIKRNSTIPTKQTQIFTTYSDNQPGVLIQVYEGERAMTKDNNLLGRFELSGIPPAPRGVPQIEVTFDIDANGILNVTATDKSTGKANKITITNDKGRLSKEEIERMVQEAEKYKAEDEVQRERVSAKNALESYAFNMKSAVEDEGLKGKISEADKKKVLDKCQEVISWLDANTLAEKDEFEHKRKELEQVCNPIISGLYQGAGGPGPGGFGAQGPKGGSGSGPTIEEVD

CCCc1cc(SCC(=O)Nc2c(C)n(C)n(-c3ccccc3)c2=O)n2c(nc3ccccc32)c1C#N
IC50 [1]: > 100 µM (not active) | IC50 [2]: > 100 µM (not active) | AC50 [3]: > 195 µM (inactive)

O=C(O)c1cc(-c2ccc(Cl)cc2)n(-c2cccc(Cl)c2)n1
IC50 [4]: 8.1 µM (active) | IC50 [5]: > 67 µM (not active)

C=CCN1C(=O)/C(=C\c2cccn2-c2cccc([N+](=O)[O-])c2)C(=O)NC1=S
EC50 (Bcl-2-like protein 10): 5.36 µM (active)

CCOc1ccc(-n2cc(C(=O)Nc3cccc(Cl)c3)c3cc(OC)c(OC)cc3c2=O)cc1
EC50 [6]: 21.5 µM (active) | IC50 [7]: > 35 µM (not active) | EC50 [8]: > 120 µM (not active) | EC50 [9]: > 120 µM (not active) | EC50 [10]: 3.7 µM (active) | IC50 [11]: > 35 µM (not active) | EC50 [12]: > 60 µM (not active)

Cc1ccc(/C=C/c2ccc(=O)n(Cc3ccccc3Cl)n2)cc1
EC50 [13]: 6.69 µM (active) | EC50 (Streptococcus [14]): 10.7 µM (active) | EC50 (Streptokinase A): 10.2 µM (active) | EC50 (Streptococcus [15]): > 50 µM (not active)
